# Laboratory results taken from US20220370453A1 (Storm Therapeutics Ltd, priority 2019, published 2022).
# Legend:
# BCDIN3D [1] = biological target: T1, BCDIN3D (Homo sapiens, UniProt Q7Z5W3); assay: BCDIN3D IC50 RFMS (RapidFire) assay with mini-helix; format: biochemical; conditions: 25 nM enzyme
# T1 sequence (Q7Z5W3 1-292): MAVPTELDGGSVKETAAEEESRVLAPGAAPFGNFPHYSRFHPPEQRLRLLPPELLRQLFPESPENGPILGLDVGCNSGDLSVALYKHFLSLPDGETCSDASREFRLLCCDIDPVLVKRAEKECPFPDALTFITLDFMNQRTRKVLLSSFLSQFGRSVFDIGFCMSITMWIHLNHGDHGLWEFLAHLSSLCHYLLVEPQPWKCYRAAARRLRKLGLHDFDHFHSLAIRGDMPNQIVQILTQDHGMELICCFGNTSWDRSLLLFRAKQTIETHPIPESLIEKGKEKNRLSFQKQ
# In short: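 25 nM enzyme preincubated 10 min at room temperature with compound (1% DMSO) in 25 mM Tris pH 8.0, 10 mM DTT, 1 mM EDTA, 0.03% BSA. Reaction started with 0.2 μM mini-helix plus 6 μM SAM, run 1 h at 37 °C, quenched with TCA; SAH product quantified by RapidFire MS against isotopic SAH standards.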
# BCDIN3D [2] = biological target: T1, BCDIN3D; assay: BCDIN3D InCellPulse thermal stability assay in transfected A549 cells; format: cell-based; conditions: heat shock 58° C. 15 min
# In short: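 A549 cells transiently expressing BCDIN3D N-terminally fused to ePL ProLabel tag, 1500 cells/well, pre-incubated 1 h at 37 °C with compound (0.6% DMSO). Heat shock 58 °C for 15 min; remaining soluble fusion detected by split β-galactosidase complementation luminescence.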
# [3] = mini-helix substrate 0.2 μM, SAM 6 μM
# [4] = transiently transfected A549 cells
Compound,IC50 (BCDIN3D [1]; [3]) [nM],IC50 (BCDIN3D [2]; [4]) [nM],"IC50 (BCDIN3D [1]; mini-helix 0.2 μM and SAM 6 μM as substrates, 1 hr at 37° C.) [nM]","IC50 (BCDIN3D [2]; A549 cells transiently transfected with ePL-BCDIN3D, 1 h pre-incubation) [nM]"
"CC(C)Cc1nc(NCC(N)c2ccccc2)nc2c1cnn2C (centres unmarked) [Compound 4.130, N2-[1-methyl-4-(2-methylpropyl)-1H-pyrazolo[3,4-d]pyrimidin-6-yl]-1-phenylethane-1,2-diamine]",6010,11200,,
Cc1ccc(CNc2nc(NCC(N)c3ccccn3)nc3c2cnn3C)cc1Cl (centres unmarked) [Compound 5.02],217,944,,
"Cn1ncc2c(Nc3ccc(C(F)(F)F)cc3)nc(NCC(N)c3ccccn3)nc21 (centres unmarked) [Compound 5.03, 6-N-(2-amino-2-pyridin-2-ylethyl)-1-methyl-4-N-[4-(trifluoromethyl)phenyl]pyrazolo[3,4-d]pyrimidine-4,6-diamine]",89.4,436,,
"CNc1nc(NCC(N)c2cccc(C#N)c2)nc2c1cnn2C (centres unmarked) [Compound 5.04, 3-[1-Amino-2-[[1-methyl-4-(methylamino)pyrazolo[3,4-d]pyrimidin-6-yl]amino]ethyl]benzonitrile]",694,3640,,
"C#Cc1cccc(C(N)CNc2nc(NC(C)(C)C)c3cnn(C)c3n2)c1 (centres unmarked) [Compound 5.05, N6-[2-Amino-2-(3-ethynylphenyl)ethyl]-N4-tert-butyl-1-methyl-pyrazolo[3,4-d]pyrimidine-4,6-diamine]",51.8,68.3,,
"Cn1ncc2c(NC(C)(C)C)nc(NCC(N)c3ccccn3)nc21 (centres unmarked) [Compound 5.06, N6-[2-amino-2-(2-pyridyl)ethyl]-N4-tert-butyl-1-methyl-pyrazolo[3,4-d]pyrimidine-4,6-diamine]",1100,1110,,
"Cc1ccc(CNc2nc(NCC(N)c3cccnc3)nc3c2cnn3C)cc1Cl (centres unmarked) [Compound 5.07, 6-N-(2-amino-2-pyridin-3-ylethyl)-4-N-[(3-chloro-4-methylphenyl)methyl]-1-methylpyrazolo[3,4-d]pyrimidine-4,6-diamine]",135,882,,
"Cn1ncc2c(NC(C)(C)C)nc(NCC(N)c3cccnc3)nc21 (centres unmarked) [Compound 5.08, N6-[2-amino-2-(3-pyridyl)ethyl]-N4-tert-butyl-1-methyl-pyrazolo[3,4-d]pyrimidine-4,6-diamine]",615,1170,,
"Cn1ncc2c(Nc3ccc(C(F)(F)F)cc3)nc(NCC(N)c3ccccc3Cl)nc21 (centres unmarked) [Compound 5.09, 6-N-[2-amino-2-(2-chlorophenyl)ethyl]-1-methyl-4-N-[4-(trifluoromethyl)phenyl]pyrazolo[3,4-d]pyrimidine-4,6-diamine]",127,55.9,,
"Cn1ncc2c(NC(C)(C)C)nc(NCC(N)c3ccccc3Cl)nc21 (centres unmarked) [Compound 5.10, N6-[2-amino-2-(2-chlorophenyl)ethyl]-N4-tert-butyl-1-methyl-pyrazolo[3,4-d]pyrimidine-4,6-diamine]",495,462,,
"Cn1ncc2c(NC(C)(C)C)nc(NC[C@H](N)c3ccccc3Cl)nc21 [Compound 5.11, N6-[(2R)-2-amino-2-(2-chlorophenyl)ethyl]-N4-tert-butyl-1-methyl-pyrazolo[3,4-d]pyrimidine-4,6-diamine]",321,457,,
"Cc1ccc(CNc2nc(NCC(N)c3ccccc3F)nc3c2cnn3C)cc1Cl (centres unmarked) [Compound 5.12, 6-N-[2-amino-2-(2-fluorophenyl)ethyl]-4-N-[(3-chloro-4-methylphenyl)methyl]-1-methylpyrazolo[3,4-d]pyrimidine-4,6-diamine]",345,643,,
"Cn1ncc2c(NC(C)(C)C)nc(NCC(N)c3ccccc3F)nc21 (centres unmarked) [Compound 5.13, N6-[2-amino-2-(2-fluorophenyl)ethyl]-N4-tert-butyl-1-methyl-pyrazolo[3,4-d]pyrimidine-4,6-diamine]",383,525,,
"[2H]C([2H])([2H])n1ncc2c(NC(C)(C)C)nc(NCC(N)c3ccccc3F)nc21 (centres unmarked) [Compound 5.14, N6-[2-amino-2-(2-fluorophenyl)ethyl]-N4-tert-butyl-1-(trideuteriomethyl)pyrazolo[3,4-d]pyrimidine-4,6-diamine]",294,429,,
"CC(C)Nc1nc(NC[C@H](N)c2cccc(Br)c2)nc2c1cnn2C [Compound 5.15, N6-[(2R)-2-amino-2-(3-bromophenyl)ethyl]-N4-isopropyl-1-methyl-pyrazolo[3,4-d]pyrimidine-4,6-diamine]",28.4,47.1,,
"Cn1ncc2c(NC(C)(C)C(F)(F)F)nc(NC[C@H](N)c3cccc(Br)c3)nc21 [Compound 5.16, N6-[(2R)-2-amino-2-(3-bromophenyl)ethyl]-1-methyl-N4-(2,2,2-trifluoro-1,1-dimethyl-ethyl)pyrazolo[3,4-d]pyrimidine-4,6-diamine]",41.7,38.5,,

Compound,IC50 (BCDIN3D [1]; [3]) [nM],IC50 (BCDIN3D [2]; [4]) [nM],"IC50 (BCDIN3D [1]; mini-helix 0.2 μM and SAM 6 μM as substrates, 1 hr at 37° C.) [nM]","IC50 (BCDIN3D [2]; A549 cells transiently transfected with ePL-BCDIN3D, 1 h pre-incubation) [nM]"
"CNc1nc(NCC(N)c2cccc(Br)c2)nc2c1cnn2C (centres unmarked) [Compound 5.17, 6-N-[2-amino-2-(3-bromophenyl)ethyl]-4-N,1-dimethylpyrazolo[3,4-d]pyrimidine-4,6-diamine]",470,1870,,
"Cn1ncc2c(NC(C)(C)C)nc(NCC(N)c3cccc(Br)c3)nc21 (centres unmarked) [Compound 5.18, N6-[2-amino-2-(3-bromophenyl)ethyl]-N4-tert-butyl-1-methyl-pyrazolo[3,4-d]pyrimidine-4,6-diamine]",47,27.8,,
"CC(C)Nc1nc(NCC(N)c2ccc(Br)cc2)nc2c1cnn2C (centres unmarked) [Compound 5.19, 6-N-[2-amino-2-(4-bromophenyl)ethyl]-1-methyl-4-N-propan-2-ylpyrazolo[3,4-d]pyrimidine-4,6-diamine]",375,767,,
"Cn1ncc2c(NC(C)(C)C)nc(NCC(N)c3ccccc3Br)nc21 (centres unmarked) [Compound 5.20, N6-[2-amino-2-(2-bromophenyl)ethyl]-N4-tert-butyl-1-methyl-pyrazolo[3,4-d]pyrimidine-4,6-diamine]",609,1120,,
"CNc1nc(NCC(N)c2ccc(C#N)cc2)nc2c1cnn2C (centres unmarked) [Compound 5.21, 4-[1-amino-2-[[1-methyl-4-(methylamino)pyrazolo[3,4-d]pyrimidin-6-yl]amino]ethyl]benzonitrile]",3860,11100,,
"Cn1ncc2c(NC(C)(C)C)nc(NCC(N)c3cccc(C#N)c3)nc21 (centres unmarked) [Compound 5.22, 3-[1-amino-2-[[4-(tert-butylamino)-1-methyl-pyrazolo[3,4-d]pyrimidin-6-yl]amino]ethyl]benzonitrile]",42.8,129,,
"Cn1ncc2c(NC(C)(C)C(F)(F)F)nc(NC[C@H](N)c3cccc(C#N)c3)nc21 [Compound 5.23, 3-[(1R)-1-amino-2-[[1-methyl-4-[(2,2,2-trifluoro-1,1-dimethyl-ethyl)amino]pyrazolo[3,4-d]pyrimidin-6-yl]amino]ethyl]benzonitrile]",61.7,124,,
"Cn1ncc2c(NC3CC(F)(F)C3)nc(NCC(N)c3cccnc3)nc21 (centres unmarked) [Compound 5.25, N6-[2-amino-2-(3-pyridyl)ethyl]-N4-(3,3-difluorocyclobutyl)-1-methyl-pyrazolo[3,4-d]pyrimidine-4,6-diamine]",1810,5580,,
"Cn1ncc2c(NC(C)(C)C)nc(NCC(N)c3ccncc3)nc21 (centres unmarked) [Compound 5.26, N6-[2-amino-2-(4-pyridyl)ethyl]-N4-tert-butyl-1-methyl-pyrazolo[3,4-d]pyrimidine-4,6-diamine]",3390,5570,,
"Cn1ncc2c(NC3CC(F)(F)C3)nc(NCC(N)c3ccncc3)nc21 (centres unmarked) [Compound 5.27, N6-[2-amino-2-(4-pyridyl)ethyl]-N4-(3,3-difluorocyclobutyl)-1-methyl-pyrazolo[3,4-d]pyrimidine-4,6-diamine]",2810,10000,,
"Cn1ncc2c(NC(C)(C)C)nc(NC[C@H](N)c3ccc(C#N)cc3)nc21 [Compound 5.28, 4-[(1R)-1-amino-2-{[4-(tert-butylamino)-1-methyl-1H-pyrazolo[3,4-d]pyrimidin-6-yl]amino}ethyl]benzonitrile]",90,370,,
"CN[C@@H](CNc1nc(NC(C)(C)C)c2cnn(C)c2n1)c1ccccc1 [Compound 5.29, N4-tert-butyl-1-methyl-N6-[(2R)-2-(methylamino)-2-phenylethyl]-1H-pyrazolo[3,4-d]pyrimidine-4,6-diamine]",2780,1690,,
"Cn1ncc2c(NC(C)(C)C)nc(NCC(N)c3cccc(C4CC4)c3)nc21 (centres unmarked) [Compound 5.32, N6-[2-amino-2-(3-cyclopropylphenyl)ethyl]-N4-tert-butyl-1-methyl-1H-pyrazolo[3,4-d]pyrimidine-4,6-diamine]",70,120,,
"Cn1ncc2c(NC(C)(C)C)nc(NCC(N)c3ccc(C4CC4)cc3)nc21 (centres unmarked) [Compound 5.33, N6-[2-amino-2-(4-cyclopropylphenyl)ethyl]-N4-tert-butyl-1-methyl-1H-pyrazolo[3,4-d]pyrimidine-4,6-diamine]",130,150,,
"CCOc1nc(NCC(N)c2ccccc2)nc2c1cnn2C (centres unmarked) [Compound 6.01, N′-(4-Ethoxy-1-methylpyrazolo[3,4-d]pyrimidin-6-yl)-1-phenylethane-1,2-diamine]",,,2510,6610
